From patent publication US20250339547A1, “MET BCL-XL INHIBITOR ANTIBODY-DRUG CONJUGATES AND METHODS OF USE THEREOF” (Novartis AG, priority 2022, published 2025)
pIC50: −log10 of the molar value.

Key:
Type in all cases: cell-based
[1] = system: SNU-5; assay: In vitro activity in SNU-5 cell line (CTG 120h), Example 12; details: Homo sapiens, SNU-5, 120 h, SNU5, CTG 120 h
Protocol: EBC-1 and SNU-5 cell lines were cultured in the media described above at 37° C. in a humidified atmosphere containing 5% CO2. […] Effects of mAbs or ADCs on cell viability were assessed after 5 days of incubation at 37° C./5% CO2 by quantification of cellular ATP levels using CellTiter-Glo reagent (Promega Ref: G7571) at 75 μL reagent/well. All the conditions were tested in triplicates. Luminescence was quantified on a multipurpose plate reader. IC50s were calculated using standard four-parametric curve fitting. […] Two independent experiments were performed (N1 and N2).

[2] = system: LOUNH-91; assay: In vitro activity in LOUNH-91 cell line (CTG 120h), Example 6; details: LOU-NH91, 120 h, LOUNH91, CTG 120 h
Protocol: (§1) Cell lines were cultured in the media described above at 37° C. in a humidified atmosphere containing 5% CO2. Cells were seeded in 96 well clear bottom plates (96 well clear-bottom, white, Corning reference 3903) and exposed to the mAbs or ADCs for 120h (serially diluted; 9 concentrations each, triplicates). Effects of mAbs or ADCs on cell viability were assessed after 5 days of incubation at 37° C./5% CO2 by quantification of cellular ATP levels using CellTiter-Glo reagent (Promega Ref: G7571) at 75 μL reagent/well. All the conditions were tested in triplicates. Luminescence was quantified on a multipurpose plate reader. IC50s were calculated using standard four-parametric curve fitting. IC50 is defined as the compound concentration at which the CTG signal is reduced to 50% of that measured for the control. Two independent experiments were performed (N1 and N2). IC50 data of each experiment and the arithmetic mean is shown in Table 14 for all the antibodies and ADCs tested.

[3] = system: EBC-1; assay: In vitro activity in EBC-1 cell line (CTG 120h), Example 6; details: Homo sapiens, EBC-1, 120 h, EBC-1, CTG 120 h
Protocol: as §1

[4] = system: HCC78 lung cancer cell line; assay: HCC78 viability, single agents or 1:1 combination with paclitaxel (CTG 120h), Example 13; details: Homo sapiens, HCC78, 120 h
Protocol: HCC78 lung cancer cell line was cultured in the media described above at 37° C. in a humidified atmosphere containing 5% CO2. […] When in 1:1 combination, both paclitaxel and the mAb or ADC were serially diluted (9 concentrations each, triplicates). Effect on cell viability was assessed after 5 days of incubation at 37° C./5% CO2 by quantification of cellular ATP levels using CellTiter-Glo reagent (Promega Ref: G7571) at 75 μL reagent/well. All the conditions were tested in triplicates. Luminescence was quantified on a multipurpose plate reader. IC50s were calculated using standard four-parametric curve fitting. […] Two independent experiments were performed (N1 and N2).

| Compound | pIC50 ([1]; Mean) | pIC50 ([1]; N1) | pIC50 ([1]; N2) | pIC50 ([2]; mean) | pIC50 ([2]; n = 1) | pIC50 ([2]; n = 2) | pIC50 ([3]; mean) | pIC50 ([3]; n = 1) | pIC50 ([3]; n = 2) | pIC50 ([4]; Mean) | pIC50 ([4]; N1) | pIC50 ([4]; N2) |
| --- | --- | --- | --- | --- | --- | --- | --- | --- | --- | --- | --- | --- |
| Cc1c(Nc2nc3ccccc3s2)nnc2c1CCCN2c1ccc(-c2cnn(C[C@]34C[C@]5(C)C[C@](C)(C3)C[C@@](OCCNCCCO)(C5)C4)c2C)c(C(=O)O)n1 [P25, 6-[3-(1,3-benzothiazol-2-ylamino)-4-methyl-6,7-dihydro-5H-pyrido[2,3-c]pyridazin-8-yl]-3-[1-[[3-[2-(3-hydroxypropylamino)ethoxy]-5,7-dimethyl-1-adamantyl]methyl]-5-methyl-pyrazol-4-yl]pyridine-2-carboxylic acid] | 5.26 | 5.26 | < 4.52 | 8.15 | 8.19 | 8.11 | 7.36 | 7.68 | 7.18 | – | – | – |
| CC(=O)O[C@H]1C(=O)[C@@]2(C)[C@H]([C@H](OC(=O)c3ccccc3)[C@]3(O)C[C@H](OC(=O)[C@H](O)[C@@H](NC(=O)c4ccccc4)c4ccccc4)C(C)=C1C3(C)C)[C@]1(OC(C)=O)CO[C@@H]1C[C@@H]2O [Paclitaxel, paclitaxel] | – | – | – | – | – | – | – | – | – | 8.19 | 8.22 | 8.16 |
